Source: US20240408064A1, “RAS INHIBITORS, COMPOSITIONS AND METHODS OF USE THEREOF” (GENETOLEAD INC., priority 2021, published 2024)
“And” between values parts separate entries of the source, which are not always exact repeats. Equal entries are not always repeated.

Assays:
Assay type in all cases: binding
HRas^G12V [1] = biological target: T1, HRas^G12V (Homo sapiens (Human), UniProt P01112, G12V); assay: 19F DLB (ligand-observed 19F NMR) score; set-up: scale not given here
Method in brief: (§1)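 Fragments were pooled at 240 μM each with 50 μM HRas G12V in 25 mM sodium phosphate pH 7.4, 150 mM NaCl, 5 mM MgCl2, 1 mM TCEP-d16, 10% D2O, and screened by 1H-decoupled 1D 19F NMR at 600 MHz (64 scans, 5 s relaxation delay). T2-CPMG data were collected with 1 ms echoes and eight delays from 1 to 800 ms.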

HRas^G12V [2] = biological target: T1, HRas^G12V; assay: 19F T2-CPMG NMR score
Method in brief: as §1

GDP-HRas^G12V = GDP-HRas^G12V (Homo sapiens (Human), UniProt P01112, G12V); assay: Dissociation constant by microscale thermophoresis (MST)
GDP-HRas^G12V, sequence (P01112 1-166 G12V): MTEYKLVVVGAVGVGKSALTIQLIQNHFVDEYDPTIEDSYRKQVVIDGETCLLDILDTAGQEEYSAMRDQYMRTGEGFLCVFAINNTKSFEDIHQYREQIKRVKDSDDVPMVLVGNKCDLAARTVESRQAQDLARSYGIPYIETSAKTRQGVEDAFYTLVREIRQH
Protocol: MST experiments were performed with a Monolith NT.115 Pico (NanoTemper Technologies, Munich, Germany). […] Data was acquired in PBS buffer with 0.1% pluronic acid. Data was analyzed with the NanoTemper MO.Affinity Analysis software.

wild type HRAS [3] = biological target: T2, wild type HRAS (Homo sapiens (Human), UniProt P01112); assay: 19F DLB score, wild type HRAS
T2 sequence (P01112 whole entry, the tested form may be a part): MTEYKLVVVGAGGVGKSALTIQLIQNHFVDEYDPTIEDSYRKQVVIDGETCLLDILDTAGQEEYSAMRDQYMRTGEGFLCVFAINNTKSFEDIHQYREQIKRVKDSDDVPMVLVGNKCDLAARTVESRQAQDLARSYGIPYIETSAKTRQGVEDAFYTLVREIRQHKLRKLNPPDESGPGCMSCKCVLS
Protocol: (§2) Since the fragment library was curated using phosphate buffer, 25 mM sodium phosphate pH 7.4, 150 mM NaCl, 5 mM MgCl2, 1 mM TCEP-d16, 10% D2O Fresh TCEP was used for experiments. Screening was performed using ^1H-decoupled 1D ^19F experiment Bruker experiment (zgfhigqn.2) with 64 scans and a relaxation delay of 5 seconds. 50 μM HRas^G12V and 240 μM of each fragment in pools (mixtures) were used.
(§3) Hit confirmation was performed using the same ^19F experiment as the screen. Ligand-observed 1D ^1H, protein-observed 1D ^1H, ^1H T2-CPMG as well as Saturation Transfer Difference (STD) experiments were also run on the same samples. Ligand-observed 1D ^1H was run using the standard Bruker sequence with excitation sculpting (zgesgp) with a relaxation delay of 10 seconds and 16 scans per spectrum. Protein-observed 1D ^1H was performed using the same sequence with a relaxation delay of 1 second and 256 scans in order to increase the signal-to-noise of the protein resonances, while keeping the experimental time relatively short. The ^1H T2-CPMG experiment employed a modified version of the Bruker 1D ^1H zgesgp experiment with the addition of a CPMG pulse train after the first 90° excitation pulse. Total duration for each spin echo was fixed at 1 ms (τ=500 μs), while the number of echoes in the pulse train was varied according to the total time (T). The number of scans for each spectrum was 4 and eight delay times were run on each sample, ranging from 1 ms to 800 ms.
(§4) The activity of compounds of the invention regarding wild type HRAS was measured in the same as in Example 80. The results obtained with the compounds in the various assays described above are depicted in Table 2.

wild type HRAS [4] = biological target: T2, wild type HRAS; assay: 19F T2-CPMG score, wild type HRAS
Protocol: as §2, §3, §4

KRAS^G12D-GDP [5] = biological target: T3, KRAS^G12D-GDP (Homo sapiens (Human), UniProt P01116, G12D); assay: NMR Kd, KRAS^G12D-GDP; settings: 1H 1D protein-observed NMR, read-out: 1H 1D PO NMR Kd
Protocol: ^1H/^15N Fast-HSQC experiments (Mori et al., Journal of Magnetic Resonance, Series B, Volume 108, Issue 1, July 1995, Pages 94-98) were recorded at a protein concentration of 50-100 μM.
Dissociation constants were obtained by monitoring changes in chemical shifts as a function of ligand concentration. The changes in chemical shifts (d) were calculated according to the following equation (Williamson, Progress in Nuclear Magnetic Resonance Spectroscopy, Volume 73, August 2013, Pages 1-16): d=√(1/2[δ_H^2+[…]]), Where δ are the changes in chemical shift in ppm for ^1H and ^15N and the correction factor (α) was set at 0.15.
^1H 1D protein-observed experiments were recorded with 15-50 μM protein. The standard Bruker 1D ^1H sequence with excitation sculpting (zgesgp) was employed. A relaxation delay of 1 s was employed in order to use 256 scans while still keeping experimental time fairly short. Changes in protein chemical shift or peak intensity in the methyl region were monitored against compound concentration.
(§5) The activity of compounds of the invention regarding KRAS^G12D-GDP was measured in the same as in Example 80. The results obtained with the compounds in the various assays described above are depicted in Table 23.

KRAS^G12D-GDP [6] = biological target: T3, KRAS^G12D-GDP; assay: Overall activity in the various assays, KRAS^G12D-GDP
Protocol: as §5

T1 sequence (P01112 1-166 G12V): as the sequence (P01112 1-166 G12V) above

Compound: CN(C)CC(=O)Nc1cccc(NC(=O)Cc2c[nH]c3cc(F)ccc23)c1 [compound 10097]
- 19F DLB Score (HRas^G12V [1]): 3.84
- 19F T2-CPMG Score (HRas^G12V [2]): 38.49
- Kd (GDP-HRas^G12V): 65 to 82.9 µM
- 19F DLB Score (wild type HRAS [3]): 7.61
- 19F T2-CPMG Score (wild type HRAS [4]): <LLOQ

Compound: CC(C)N1CCC(NC(=O)Cc2c[nH]c3cc(F)ccc23)CC1 [Compound 10018]
- 19F DLB Score (HRas^G12V [1]): 1.64 and 1.79 and 1.93 and 1.86 and 1.71
- 19F T2-CPMG Score (HRas^G12V [2]): 10.62 and 11.88 and 18.24 and 9.37 and 15.13
- Kd (KRAS^G12D-GDP [5]): 5020 to 6250 µM
- Activity ranking on KRAS^G12D-GDP (in words) (KRAS^G12D-GDP [6]): most active

Compound: CN(C)CCOc1cccc(NC(=O)Cc2c[nH]c3cc(F)ccc23)c1 [Compound 10095, N-(3-(2-(dimethylamino)ethoxy)phenyl)-2-(6-fluoro-1H-indol-3-yl)acetamide]
- 19F DLB Score (HRas^G12V [1]): 4.19
- 19F T2-CPMG Score (HRas^G12V [2]): 33.38
- Kd (GDP-HRas^G12V): 19.1 to 23.5 µM
- 19F DLB Score (wild type HRAS [3]): 4.57
- 19F T2-CPMG Score (wild type HRAS [4]): <LLOQ

Compound: O=C(Cc1c[nH]c2cc(F)ccc12)N1CCC(O)CC1 [Compound 10086]
- 19F DLB Score (HRas^G12V [1]): 3.04
- 19F T2-CPMG Score (HRas^G12V [2]): 32.13
- Kd (GDP-HRas^G12V): 1810 to 2080 µM
- Kd (KRAS^G12D-GDP [5]): 1900 to 4030 µM
- Activity ranking on KRAS^G12D-GDP (in words) (KRAS^G12D-GDP [6]): most active
